Measurements: PubChem BioAssay (NCI)
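Grown in 96-well plates, cells were treated for 48 hours with each compound at five concentrations. Insufficient inhibition: endpoint recorded as highest concentration tested. The concentration for full growth arrest is given as TGI.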

Key:
Assay in all cases: DTP human tumour cell line panel, 48 h
A549 NSCLC = system: A549 NSCLC
MCF7 breast = system: MCF7 breast
DU-145 prostate = system: DU-145 prostate
NCI-H23 lung = system: NCI-H23 lung
IGROV1 ovarian = system: IGROV1 ovarian
MDA-MB-435 = system: MDA-MB-435
UO-31 renal = system: UO-31 renal
SK-OV-3 ovarian = system: SK-OV-3 ovarian
MALME-3M melanoma = system: MALME-3M melanoma
SR leukemia = system: SR leukemia
HCT-116 colon = system: HCT-116 colon
ACHN renal = system: ACHN renal
HCT-15 colon = system: HCT-15 colon
OVCAR-3 ovarian = system: OVCAR-3 ovarian
RPMI-8226 leukemia = system: RPMI-8226 leukemia
SK-MEL-5 melanoma = system: SK-MEL-5 melanoma
CCRF-CEM leukemia = system: CCRF-CEM leukemia
OVCAR-8 ovarian = system: OVCAR-8 ovarian
OVCAR-4 ovarian = system: OVCAR-4 ovarian
BT-549 breast = system: BT-549 breast
SF-539 CNS = system: SF-539 CNS
SF-268 CNS = system: SF-268 CNS
PC-3 prostate = system: PC-3 prostate
HCC-2998 colon = system: HCC-2998 colon
MOLT-4 leukemia = system: MOLT-4 leukemia
786-0 renal = system: 786-0 renal
HL-60(TB) leukemia = system: HL-60(TB) leukemia
UACC-62 melanoma = system: UACC-62 melanoma
NCI-H460 lung = system: NCI-H460 lung
SK-MEL-2 melanoma = system: SK-MEL-2 melanoma
UACC-257 melanoma = system: UACC-257 melanoma
HOP-62 NSCLC = system: HOP-62 NSCLC
U251 CNS = system: U251 CNS
HT29 colon = system: HT29 colon
SNB-19 CNS = system: SNB-19 CNS
NCI/ADR-RES ovarian = system: NCI/ADR-RES ovarian
M14 melanoma = system: M14 melanoma
K-562 leukemia = system: K-562 leukemia
OVCAR-5 ovarian = system: OVCAR-5 ovarian
CAKI-1 renal = system: CAKI-1 renal
EKVX NSCLC = system: EKVX NSCLC
SF-295 CNS = system: SF-295 CNS
MDA-N = system: MDA-N
T-47D breast = system: T-47D breast
SK-MEL-28 melanoma = system: SK-MEL-28 melanoma
NCI-H522 lung = system: NCI-H522 lung
SW-620 colon = system: SW-620 colon
LOX IMVI melanoma = system: LOX IMVI melanoma
COLO 205 colon = system: COLO 205 colon
KM12 colon = system: KM12 colon
A498 renal = system: A498 renal
NCI-H226 lung = system: NCI-H226 lung
SN12C renal = system: SN12C renal
RXF 393 renal = system: RXF 393 renal
HOP-92 NSCLC = system: HOP-92 NSCLC
MDA-MB-231 breast = system: MDA-MB-231 breast
TK-10 renal = system: TK-10 renal
SNB-75 CNS = system: SNB-75 CNS
HS 578T breast = system: HS 578T breast

SMILES: Nn1c(=S)[nH]nc(/C=C/c2c(O)ccc3ccccc23)c1=O
- TGI (A549 NSCLC): 71.2 µM
- TGI (MCF7 breast): 12.6 µM
- TGI (DU-145 prostate): > 100 µM
- TGI (NCI-H23 lung): 11 µM
- TGI (IGROV1 ovarian): 5.56 µM
- TGI (MDA-MB-435): > 100 µM
- TGI (UO-31 renal): 34.8 µM
- TGI (SK-OV-3 ovarian): 95.4 µM
- TGI (MALME-3M melanoma): 44.6 µM
- TGI (SR leukemia): 87.1 µM
- TGI (HCT-116 colon): 12.5 µM
- TGI (ACHN renal): 51.7 µM
- TGI (HCT-15 colon): 17.9 µM
- TGI (OVCAR-3 ovarian): 22.1 µM
- TGI (RPMI-8226 leukemia): > 100 µM
- TGI (SK-MEL-5 melanoma): 26.5 µM
- TGI (CCRF-CEM leukemia): 9.7 µM
- TGI (OVCAR-8 ovarian): 4.81 µM
- TGI (OVCAR-4 ovarian): 25 µM
- TGI (BT-549 breast): 31.3 µM
- TGI (SF-539 CNS): > 100 µM
- TGI (SF-268 CNS): 38.6 µM
- TGI (PC-3 prostate): > 100 µM
- TGI (HCC-2998 colon): 54.5 µM
- TGI (MOLT-4 leukemia): 86.1 µM
- TGI (786-0 renal): > 100 µM
- TGI (HL-60(TB) leukemia): 4.14 µM
- TGI (UACC-62 melanoma): 26.2 µM
- TGI (NCI-H460 lung): 76.5 µM
- TGI (SK-MEL-2 melanoma): > 100 µM
- TGI (UACC-257 melanoma): 50.9 µM
- TGI (HOP-62 NSCLC): 62.8 µM
- TGI (U251 CNS): > 100 µM
- TGI (HT29 colon): 21.9 µM
- TGI (SNB-19 CNS): > 100 µM
- TGI (NCI/ADR-RES ovarian): 14.4 µM
- TGI (M14 melanoma): 41.6 µM
- TGI (K-562 leukemia): > 100 µM
- TGI (OVCAR-5 ovarian): 42.5 µM
- TGI (CAKI-1 renal): 36.1 µM
- TGI (EKVX NSCLC): 20.9 µM
- TGI (SF-295 CNS): 96.1 µM
- TGI (MDA-N): > 100 µM
- TGI (T-47D breast): 31.9 µM
- TGI (SK-MEL-28 melanoma): 73.5 µM
- TGI (NCI-H522 lung): 16.7 µM
- TGI (SW-620 colon): > 100 µM
- TGI (LOX IMVI melanoma): 11.7 µM
- TGI (COLO 205 colon): 27.7 µM
- TGI (KM12 colon): 59.5 µM
- TGI (A498 renal): 69.9 µM

SMILES: CCN(CCCl)c1ccc(NC(=O)c2cc(C(=O)NCCN(C)C)cc(C(=O)Nc3ccc(N(CC)CCCl)cc3)c2)cc1
- TGI (NCI-H226 lung): 25.1 µM
- TGI (A549 NSCLC): 25.7 µM
- TGI (MCF7 breast): 19.6 µM
- TGI (DU-145 prostate): 39.2 µM
- TGI (NCI-H23 lung): 23.5 µM
- TGI (IGROV1 ovarian): 29.1 µM
- TGI (MDA-MB-435): 33.9 µM
- TGI (UO-31 renal): > 100 µM
- TGI (SK-OV-3 ovarian): 19.5 µM
- TGI (MALME-3M melanoma): 34.5 µM
- TGI (SR leukemia): > 100 µM
- TGI (HCT-116 colon): 22.3 µM
- TGI (ACHN renal): 21.3 µM
- TGI (HCT-15 colon): > 100 µM
- TGI (RPMI-8226 leukemia): 23.6 µM
- TGI (SN12C renal): 21 µM
- TGI (SK-MEL-5 melanoma): 30.7 µM
- TGI (CCRF-CEM leukemia): 3.27 µM
- TGI (OVCAR-8 ovarian): 25.2 µM
- TGI (OVCAR-4 ovarian): 43.5 µM
- TGI (SF-539 CNS): 12.3 µM
- TGI (SF-268 CNS): 61.2 µM
- TGI (PC-3 prostate): 16.3 µM
- TGI (HCC-2998 colon): 35 µM
- TGI (MOLT-4 leukemia): 5.99 µM
- TGI (786-0 renal): 3.12 µM
- TGI (HL-60(TB) leukemia): 3.19 µM
- TGI (RXF 393 renal): 30.8 µM
- TGI (UACC-62 melanoma): 27.5 µM
- TGI (NCI-H460 lung): 28 µM
- TGI (SK-MEL-2 melanoma): 44.1 µM
- TGI (HOP-92 NSCLC): 29.8 µM
- TGI (MDA-MB-231 breast): 34.9 µM
- TGI (TK-10 renal): 38 µM
- TGI (UACC-257 melanoma): 65.6 µM
- TGI (HOP-62 NSCLC): 16.4 µM
- TGI (U251 CNS): 22.1 µM
- TGI (HT29 colon): 11.8 µM
- TGI (SNB-19 CNS): 19.9 µM
- TGI (NCI/ADR-RES ovarian): > 100 µM
- TGI (M14 melanoma): 28.2 µM
- TGI (OVCAR-5 ovarian): 87.1 µM
- TGI (SNB-75 CNS): 69.6 µM
- TGI (CAKI-1 renal): > 100 µM
- TGI (SF-295 CNS): 72.3 µM
- TGI (MDA-N): 29.6 µM
- TGI (T-47D breast): 53.9 µM
- TGI (SK-MEL-28 melanoma): 41.4 µM
- TGI (NCI-H522 lung): 11.4 µM
- TGI (SW-620 colon): 18 µM
- TGI (HS 578T breast): 12.4 µM
- TGI (LOX IMVI melanoma): 12.8 µM
- TGI (KM12 colon): 25.4 µM
- TGI (A498 renal): 43.1 µM
